Test results published in patent US20070264241A1, “Compounds for Enhanced Cancer Therapy” (priority 2004, published 2007).
Like-named read-outs stand apart in the source and are kept apart here.

Legend:
[1] = test system: glioma cells expressing HSV-TK (S6) mixed with RFP cells; experiment: Gap junction mediated cell death (bystander effect), MTT ratio A1:RFP/S6:RFP; format: cell-based, Rat; conditions: added to ganciclovir and 4-PB treatment
Experimental: Mixtures of cell dones were treated with drugs as indicated. After 96 h (grey bar), 120 h (white bar) and 168 h (black bar) MTT tests from three samples were performed. The ratios of the MTT tests from TK negative and TK positve mixtures (A1:RFP/S6:RFP) are shown.
Glioma cells with stable expression of green fluorescent protein (EGFP) and the herpes simplex virus thymidine kinase expressing gene HSV-TK in sense (S6) or in antisense (A1) were mixed with cells stably expressing the red fluorescent protein (RFP) (ratio 3:7 S6:RFP or A1:RFP). Ganciclovir, 4-phenylbutyrate and AGA were added 3 hrs after seeding the cells, except for AGA, which was added directly at seeding of cells. After 48 hours, cells were split and after 96, 120 and 168 hrs one each of the cell culture quadruplicates was used for MTT-test while one sample was employed for FACS analysis. After 144 h cells from the third of the quadruplicate were split again and the last quadruplicate sample was analyzed the following day (168 h).
Proliferation of cultured glioma cells was assessed by 3-(4,5-dimethylthiazol-2-yl)-2,5-diphenyltetrazolium bromide (MTT, Sigma) assay. […] The absorbance at 570 nm (with reference at 650 nm) was measured using a microtiter plate spectrophotometer (Anthos HT III). The results were expressed as percentage of viable cells compared to the control sample of untreated cells (100%).

[2] = test system: gap junction communication between S6 and RFP cells; experiment: Fluorescent dye transfer between glioma cells (S6 to RFP); format: cell-based, Rat; conditions: unlabeled recipient cells
Experimental: S6 and RFP cells were plated each in two separate dishes with one dish of each cell type treated either with AGA or DMSO. S6 cells of both dishes were incubated with Calcein-AM and Dil. Cells were trypsinized and 85% RFP cells were mixed with 15% S6 cells and mixtures were co-cultured in two dishes where one contained cells pretreated with AGA (right panel). After 2.5 hours cells were incubated with Hoechst nuclear stain and Calcein-AM dye transfer from S6 cells to RFP cells was monitored.
Glioblastoma cells were cultured on 35 mm petri dishes and in vitro labelled with 5 μM calcein-AM (acetomethylic ester) and 10 μM Dil (Molecular Probes) diluted in supplemented serum free medium DMEM/F12 and incubated for 30 min at 37° C. The cells were washed once with the same medium, trypsinized and suspended in the culture medium induding 10% FBS. The cells were pelleted by centrifugation at 1600 rpm for 1 minute and resuspended in fresh culture medium. The procedure was repeated twice. Following the second resuspension, the labelled cells were plated on top of unlabelled cells of the same origin. These cells were either pretreated with 4-PB at a concentration of 5 mM, or non-treated serving as a control. The labeled cells were then allowed to settle for 1 hour, followed by analyses using epifluorescence detection microscopy every 30 minutes for up to 6 hours. […]

U343MG cells = experiment: XTT cytotoxicity assay of nucleoside analogues with or without phenylbutyrate pre-incubation; format: cell-based, human; conditions: for IC50: 120 hours drug exposure, combinations: 24 h pre-incubation with 3.16 mM phenylbutyrate
Experimental: (§1) Cells were seeded at a density of 1.000-2.000 cells/well in 96-well plates. […] Plated incubated for 24 hours (37° C., 5% CO2) where after media was discarded and replaced by media conditioned with various concentrations of nucleoside analogs (e.g. AZT), 200 μl/well. After 120 hours of drug exposure the experiments were terminated. Cell proliferation/cytotoxicity was assessed by adding the colour generating substrates of the Cell Proliferation kit II (XTT) from Roche (Cat. No. 1465015) and measuring absorbance at 450 nm and 690 nm with a Thermo Labsystems Multiscan Ascent reader. The data was corrected for background media-only absorbance where after the 50% growth inhibitory concentration—IC50 (the dose that inhibits cell growth by 50%) was calculated for each treatment. Cells were seeded at a density of 1.000-2.000 cells/well in PLL coated 96-well plates. […] Plated incubated for 24 hours (37° C., 5% CO2) where after media was discarded and replaced by media conditioned with various concentrations of nucleoside analogs; AZT (Sigma # A2169), AraC (Sigma # C6645), Cladribine (CdA) (Sigma #C4438), Gancidovir (GCV) (Sigma # G2536) and Gemcitabine (Orifarm), 200 μl/well. After 120 hours of drug exposure the experiments were terminated. Cell proliferation/cytotoxicity was assessed by adding the colour generating substrates of the Cell Proliferation kit II (XTT) from Roche (Cat. No. 1465015) and measuring absorbance at 450 nm and 690 nm with a Thermo Labsystems Multiscan Ascent reader. he data was corrected for background media-only absorbance where after the 50% growth inhibitory concentration—IC50 (the dose that inhibits cell growth by 50%) was calculated for ach treatment.

CL2:6 cells = experiment: as above; format: cell-based; conditions: 120 hours drug exposure; for IC50: combinations: 24 h pre-incubation with 3.16 mM phenylbutyrate; for sensitivity improvement/increase by phenylbutyrate pre-incubation: CL2:6 pre-incubated 24 h with phenylbutyrate
Experimental: as §1

U87MG cells = experiment: XTT cytotoxicity assay of phenylbutyrate and of nucleoside analogues with or without phenylbutyrate pre-incubation; format: cell-based, human; conditions: 120 hours drug exposure; for IC50: combinations: 24 h pre-incubation with 3.16 mM phenylbutyrate, read-out: IC50 U87MG; for sensitivity increase by phenylbutyrate pre-incubation: U87MG pre-incubated 24 h with phenylbutyrate
Experimental: Briefly, cells were harvested by trypsinzation, stained by Tryphan Blue for cell viability counting, seeded in triplicate in 96-well plates (1.000-2.000 cells/well) where after media conditioned with a fixed concentration of phenyl butyrate (3.16 mM) were added to the plates followed by incubation for 24 hours at 37° C. and 5% CO2. Cell proliferation/cytotoxicity was assessed by adding the colour generating substrates of the Cell Proliferation kit II (XTT) from Roche (Cat. No. 1465015) and measuring absorbance at 450 nm and 690 nm with a Thermo Labsystems Multiscan Ascent reader.
Cells were seeded at a density of 1.000-2.000 cells/well in 96-well plates. Cells were pre-incubated with 4-phenyl butyrate for 24 hours prior to drug exposure by adding media conditioned with phenyl butyrate at a fixed concentration (3.16 mM). Plated incubated for 24 hours (37° C., 5% CO2) where after media was discarded and replaced by media conditioned with various concentrations of nucleoside analogs (e.g. AZT), 200 μl/well. After 120 hours of drug exposure the experiments were terminated. Cell proliferation/cytotoxicity was assessed by adding the colour generating substrates of the Cell Proliferation kit II (XTT) from Roche (Cat. No. 1465015) and measuring absorbance at 450 nm and 690 nm with a Thermo Labsystems Multiscan Ascent reader.
The data was corrected for background media-only absorbance where after the 50% growth inhibitory concentration—IC50 (the dose that inhibits cell growth by 50%) was calculated for each treatment.
Briefly, cells were harvested by trypsinzation, stained by Tryphan Blue (Cambrex) for cell viability counting, seeded in triplicate in poly-L-lysine (PLL) (Sigma # P6282) coated 96-well plates (1.000-2.000 cells/well) where after media conditioned with a fixed concentration of phenyl butyrate (3.16 mM) was added to the plates followed by incubation for 24 hours at 37° C. and 5% CO2. Cell proliferation/cytotoxicity was assessed by adding the colour generating substrates of the
Cells were seeded at a density of 1.000-2.000 cells/well in PLL coated 96-well plates. Cells were pre-incubated with 4-phenyl butyrate for 24 hours prior to drug exposure by adding media conditioned with phenyl butyrate at a fixed concentration (3.16 mM). Plated incubated for 24 hours (37° C., 5% CO2) where after media was discarded and replaced by media conditioned with various concentrations of nucleoside analogs; AZT (Sigma # A2169), AraC (Sigma # C6645), Cladribine (CdA) (Sigma #C4438), Gancidovir (GCV) (Sigma # G2536) and Gemcitabine (Orifarm), 200 μl/well. After 120 hours of drug exposure the experiments were terminated. Cell proliferation/cytotoxicity was assessed by adding the colour generating substrates of the Cell Proliferation kit II (XTT) from Roche (Cat. No. 1465015) and measuring absorbance at 450 nm and 690 nm with a Thermo Labsystems Multiscan Ascent reader. he data was corrected for background media-only absorbance where after the 50% growth inhibitory concentration—IC50 (the dose that inhibits cell growth by 50%) was calculated for ach treatment.

U87MG wt cells = experiment: Cell killing effect of AZT, XTT assay, non-transduced cells; format: cell-based, human; conditions: 120 hours
Experimental: Exponentially growing U87 wt and tomato kinase expressing cells were plated at a density of 2.000 cells/well in poly-L-lysine coated 96-well plates in 100 μl conditioned medium and incubated 37° C. in a humidified incubator with a gas phase of 5% CO2. After 24 hours, medium was replaced with medium containing varying concentrations of AZT. Hereafter, cells were exposed to drug conditioned media for 120 constitutive hours. The chemo resistance of cultured cells was monitored by the surviving cell fraction as a function of the drug concentration. Viability of cells was determined via the colorimetric XTT assay (XTT kit II—Roche, cat no. 1465015). Briefly, cell media was carefully removed and 100 μl fresh media and 50 μl XTT mix was added to each well. The absorbance at 450 and 690 nm was determined using an ELISA plate reader (Ascent, ThermoLab). The IC50 value (50% inhibition concentration) of the investigated compound was calculated as the mean value of each experiment using SigmaPlot® (Dyrberg Trading, DK).

[3] = test system: U87MG cells expressing tomato thymidine kinase; experiment: Cell killing effect of AZT, XTT assay, tomato thymidine kinase transduced cells; format: cell-based, human; conditions: for IC50: U87MG tomato TK
[4] = test system: hGBM-1, hGBM-5 and hGBM-14 glioblastoma cultures; experiment: MTT assay of cell viability and proliferation in primary glioblastoma cultures; format: cell-based, human; conditions: hGBM-1, hGBM-5, hGBM-14; 24 hours (FIG. 2)
Experimental: Proliferation of cultured glioma cells was assessed by 3-(4,5-dimethylthiazol-2-yl)-2,5-diphenyltetrazolium bromide (MTT, Sigma) assay. MTT tetrazolium salt was dissolved in serum-free culture medium (0.5 mg/ml), added to the cells (150 μl/well) and incubated for 30 min at 37° C. Formazan dye, formed by viable cells, was solubilized in 300 μl of isopropanol. Aliquots (100 μl) of the solutions were transferred to 96-well microplates. The absorbance at 570 nm (with reference at 650 nm) was measured using a microtiter plate spectrophotometer (Anthos HT III). The results were expressed as percentage of viablecells compared to the control sample of untreated cells (100%).

[5] = test system: cell line transfected with Dm dNK variant; conditions: cited from earlier work

CC1(C)[C@@H](O)CC[C@]2(C)[C@H]3C(=O)C=C4[C@H]5C[C@@](C)(C(=O)O)CC[C@]5(C)CC[C@@]4(C)[C@]3(C)CC[C@@H]12 [AGA, 18α glycyrrhethinic acid]
bystander killing effect upon addition of gap junction inhibitor [1]: reduced
calcein transfer from Dil-positive donor cells [2]: inhibited

Cc1cn([C@H]2C[C@H](N=[N+]=[N-])[C@@H](CO)O2)c(=O)[nH]c1=O [AZT, 3′-azido-3′-thymidine]
IC50 (U343MG cells): 56 µM
sensitivity improvement by phenylbutyrate pre-incubation (U343MG cells; U343MG pre-incubated 24 h with phenylbutyrate): 4.2 times
IC50 (CL2:6 cells): 0.573 mM
sensitivity improvement/increase by phenylbutyrate pre-incubation (CL2:6 cells): 1.7 times
IC50 (U87MG cells): 6 mM
IC50 (U87MG wt cells): 7.43 mM
sensitivity increase of tomato TK expressing U87 cells compared to wt U87MG [3]: 500 fold
IC50 ([3]; 120 hours, read-out: IC50 for tomato TK transduced cells): 14.8 µM
IC50 ([3]; read-out: IC50 measured in FIG. 15B, approximate): ~15 µM

Nc1ccn([C@@H]2O[C@H](CO)[C@@H](O)[C@@H]2O)c(=O)n1 [AraC, cytidine-arabinoside]
IC50 (U87MG cells): 4.33 mM
sensitivity increase by phenylbutyrate pre-incubation (U87MG cells): 3.5 times

Nc1nc(Cl)nc2c1ncn2[C@H]1C[C@H](O)[C@@H](CO)O1 [CdA, 2-chloro-2′-deoxyadenosine]
IC50 (U87MG cells; Homo sapiens, U-87 MG): 0.00573 mM
sensitivity increase by phenylbutyrate pre-incubation (U87MG cells): 2.3 times

Nc1nc(O)c2ncn(COC(CO)CO)c2n1 [GCV, 9-[2-hydroxy-1-(hydroxymethyl)ethoxyl-methyl]-guanosine]
IC50 (U343MG cells; Homo sapiens, U-343MG): 104 µM
IC50 (CL2:6 cells): 3.36 mM
sensitivity improvement/increase by phenylbutyrate pre-incubation (CL2:6 cells): 1.4 times

Nc1ccn([C@@H]2O[C@H](CO)[C@@H](O)C2(F)F)c(=O)n1 [Gemcitabine, 2′,2′-difluorodeoxycytidine]
IC50 (U87MG cells; Homo sapiens, U-87 MG): 0.000248 mM
sensitivity increase by phenylbutyrate pre-incubation (U87MG cells): 7.8 times

O=C1CCc2c(ccc3ccccc23)O1 [Splitomicin, splitomicin]
antiproliferative potency compared with 4-PB (MTT) [4]: less potent

CC(/C=C/C(=O)NO)=C\[C@@H](C)C(=O)c1ccc(N(C)C)cc1 [Trichostatin A]
antiproliferative potency compared with 4-PB (MTT) [4]: less potent

CCCC(=O)[O-].[Na+] [sodium butyrate]
antiproliferative potency compared with 4-PB (MTT) [4]: less potent

CCCC(CCC)C(=O)O [valproic acid]
antiproliferative potency compared with 4-PB (MTT) [4]: less potent

B1: B5: mutant form of the Drosophila melanogaster Dm dNK deoxyribonucleoside kinase (SEQ ID NO 5) (protein)
chain: MAEAASCARKGTKYAEGTQPFTVLIEGNIGSGKTTYLNHFEKYKNDICLLTEPVEKWRNVNGVNLLELMYKDPKKWAMPFQSYATLTMLQSHTAPTNKKLKIMERSIFSARYCFVENMRRNGSLEQGMYNTLEEWYKFIEESIHVQADLIIYLRTSPEVAYERIRQRARSEESCVPLKYLQELHELHEDWLIHQRRPQSCKVLVLDADLDLENIGTEYQRSESSIFDAISSNQQPSPVPVSPSKRQRVAR
modifications: Drosophila melanogaster
degree of activation for gemcitabine relative to wild type Dm dNK [5]: approximately 50 times
